According to US4657924A, “Nafazatrom as a lipoxygenase inhibitor” (priority 1983, dated 1987):

Legend:
[1] = test system: Lipoxygenase (leukotriene B4 biosynthesis in human PMN leucocytes); assay: Lipoxygenase inhibition: inhibition of leukotriene B4 biosynthesis in human PMN leucocytes; type: cell-based
Procedure: The human PMN leucocytes (95%) used in the present example were obtained from heparinized complete blood by dextran sedimentation and subsequent density gradient separation (Ficoll-Paque) (compare A. Boyum, Scand. J. Immunol., 5, Suppl. 5, 9, 1976).
2×10^7 cells/ml were suspended in Dulbecco phosphate buffer containing Ca^2+ and were incubated with radioactively labelled arachidonic acid and the calcium ionophor A 23187 in the presence or absence of lipoxygenase inhibitor. After 15 minutes, the labelled lipoxygenase products were extracted from the acidified incubation medium and were separated by thin layer chromatography using a mobile phase mixture suitable for the leukotrienes (5-HETE-LTB4) (compare B. Jakschik et al., Biochem.Biophys.Res.Commun., 102, 624, 1981).
The distribution of the activity amongst the various metabolites was measured by a thin layer scanner. It is a measure of the lipoxygenase-inhibiting action of a test substance at a certain concentration.
The lipoxygenase metabolites were also additionally determined independently by means of high pressure liquid chromatography. This method enables the endogenous arachidonic acid metabolism to be studied with the aid of UV detection of the leukotrienes. In this method, the cells were treated as described above, with the exception that no radioactively labelled arachidonic acid was added exogenously. The high pressure liquid chromatography was carried out on Lichrosorb RP-18 (5 μm) columns. The mobile phase was methanol/water/glacial acetic acid 69/31/0.01. The flow rate was 1 ml/minute. Leukotriene B4 was determined at 232 nm, in each case by means of UV absorption.

5-lipoxygenase = 5-lipoxygenase inhibition; type: biochemical; details: selectively, versus 15- and 12-lipoxygenase
15-lipoxygenase = 15-lipoxygenase inhibition; type: biochemical; details: concentrations of >10 μg/ml
12-lipoxygenase = 12-lipoxygenase inhibition; type: biochemical; details: these concentrations (>10 μg/ml)
[2] = test system: synthesis of various prostaglandins in RSVM and BAM; assay: Prostaglandin synthesis in microsomes of sheep seminal vesicles (RSVM) and cattle aortas (BAM); type: biochemical
Procedure: The specific PGI2 -stimulating action of nafazatrom was shown in vitro in a mixture of microsomes from the seminal vesicles of sheep (RSVM) and the aortas of cattle (BAM) (compare F. Cottee et al., Protaglandins, 14, 413, 1977). ^3 H-arachidonic acid was incubated with a mixture of RSVM and BAM in the presence of 3.10^-5 g/ml of nafazatrom at 25° C. for 10 minutes. The reaction was stopped by acidification to pH 3.5. The fatty acid metabolites were extracted with ethyl acetate. The ethyl acetate was evaporated off under N2, the residue was taken up in CH3 OH/CHCl3 (1:1) and the mixture was discharged on thin layer chromatography plastic sheets. Separation was effected with a mobile phase mixture of ethyl acetate/glacial acetic acid/isooctane/H2 O (110:20:50:10; organic phase) (P. Needleman et al., The Journal of Clinical Investigation 1978, 61, 839-849). The distribution of the radioactivity was measured by means of a radio scanner.

rabbit hearts = assay: Rabbit hearts perfused by the method of Langendorff, perfusion pressure
Procedure: The heart was removed from the rabbits (up to about 2 kg) under Nembutal anaesthesia and cannulas were attached at the aorta and at the a.pulmonalis. To measure the isovolumetric contractions, a silicon rubber balloon filled with liquid was inserted into the left ventricle via the left auricle. The balloon was connected to a liquid sensor (Statham P 23 Db) via a liquid bridge. The perfusion pressure was recorded with a pressure sensor, which was connected to the perfusion system via T-piece before the aorta cannula of the heart. The contraction force and perfusion pressure were recorded with a Gould 2600 S high-speed recorder. The hearts were stimulated electrically at a frequency of 180/minute and a stimulation duration of 5 mseconds.
Perfusion of the hearts was effected with Krebs-Henseleit solution (KH solution), which was gassed with carbogen (95% of O2, 5% of CO2) or with a gas mixture of 2% of O2, 5.6% of CO2 and the remainder N2. The perfusion volume was 20 ml/minute and was adjusted by a roller pump (Desaga, 132100). The nafazatrom and the platelet suspensions (obtained from the same rabbit from which the heart is removed) were added with the aid of infusion pumps (roller pumps, Braun-Melsungen), the solution or suspension being infused at a flow rate of 0.2 or 0.1 ml/minute from an infusion syringe via a Taigon tube and a fine cannula into the inlet tube shortly before the heart. The final concentration of the platelets was 1×10^7 /ml of KH solution. The solution flowing out of the heart (cannula in the a.pulmonalis) was collected periodically, under ice-cooling. To measure the concentrations of thromboxan as TXB2 and of prostacyclin as 6-keto-PGF1^α, determination of which was effected with the aid of radioimmunoassay, aliquot parts by volume were freeze-dried and taken up in one tenth of the original volume of water.

guinea pig lung = assay: Inhibition of methacholine-induced bronchoconstriction in perfused guinea pig lung; details: 10^-4 g/ml; 0.05 μg/ml of methacholine
Procedure: Nafazatrom can moreover be used for the therapy of pulmonary hypertension, pulmonary embolisms and pulmonary oedemas. […] In this organ, nafazatrom inhibits (by the method of F. P. Luduena et al., Arch. Int. Pharmacodyn. 111, 392, 1957) methacholine-induced bronchoconstriction (see Example 5).
The guinea pig lung was perfused with a physiological buffer solution (Tyrode's solution) containing 0.05 μg/ml of methacholine.

[3] = Antiasthmatic, inflammation-inhibiting and gastro-protective action; details: in words
[4] = 3.10^-5 g/ml, 25° C., 10 minutes

CC1=NN(CCOc2ccc3ccccc3c2)C(=O)C1 [nafazatrom, 3-methyl-1-[2-(2-naphthyloxy)-ethyl]-2-pyrazolin-5-one]
inhibition at 1 µg/mL ([1]; Homo sapiens, Leucocyte, 1 ug/ml, read-out: Inhibition in % in comparison with the control (leukotriene B4 biosynthesis)): 30%
inhibition at 3 µg/mL ([1]; Homo sapiens, Leucocyte, 3 ug/ml, read-out: Inhibition in % in comparison with the control (leukotriene B4 biosynthesis)): 75%
inhibition at 5 µg/mL ([1]; Homo sapiens, Leucocyte, 5 ug/ml, read-out: Inhibition in % in comparison with the control (leukotriene B4 biosynthesis)): 90%
inhibition at 10 µg/mL ([1]; Homo sapiens, Leucocyte, 10 ug/ml, read-out: Inhibition in % in comparison with the control (leukotriene B4 biosynthesis)): 100%
concentration range of inhibition of LTB4 biosynthesis ([1]; as a function of the concentration): 1 to 10 µg/mL
inhibition of 5-lipoxygenase (5-lipoxygenase): selectively inhibits
inhibition of 15-lipoxygenase (15-lipoxygenase): not inhibited or is even stimulated
inhibition of 12-lipoxygenase (12-lipoxygenase): not inhibited
Increase in concentration (in %) in comparison with the control, 6-Keto-PGF1 α [2, 4]: 300-400%
Increase in concentration (in %) in comparison with the control, PGD2 [2, 4]: 0%
Increase in concentration (in %) in comparison with the control, PGE2 [2, 4]: 0%
Increase in concentration (in %) in comparison with the control, PGF2 α [2, 4]: 0%
synthesis of prostacyclin (PGI2) ([2]; in words): specifically stimulates
synthesis of the prostaglandins having a vasoconstricting action and of TXA2 ([2]; in words, see Example 2): not influenced
Perfusion pressure in % of the blank value, 3rd phase (rabbit hearts; as 2nd phase, 1.10^-5 g/ml of nafazatrom, 5 minutes): 80%
Perfusion pressure in % of the blank value, 5th phase (rabbit hearts; as 3rd phase (reoxygenation), 1.10^-5 g/ml): 75%
Perfusion pressure in % of the blank value, 4th phase (rabbit hearts; as 3rd phase, 2% of O2 (hypoxia), 10 minutes, 1.10^-5 g/ml): 63%
rise in perfusion pressure caused by addition of platelets (rabbit hearts; first and second carbogen phase): significantly inhibits
Perfusion pressure in % of the blank value, 2nd phase (rabbit hearts; normoxia, carbogen, 1.10^7 platelets/ml, 5 minutes, before addition of nafazatrom): 139%
Perfusion pressure in % of the blank value, 1st phase (rabbit hearts; preliminary phase, carbogen, before addition of nafazatrom): 100%
inhibition of the rise in perfusion pressure, and hence bronchoconstriction (guinea pig lung): 50%
antiasthmatic, inflammation-inhibiting and gastro-protective action [3]: marked antiasthmatic, inflammation-inhibiting and gastro-protective action
